Measurements: patent US9795570B2, “Modulation of macrophage phenotype by emodin” (University of South Carolina, priority 2016, dated 2017)

Tests used:
[1] = tested on: mouse peritoneal macrophages; test: Macrophage migration assay toward MCP1 (transwell); format: cell-based; conditions: LPS/IFNγ or IL4 stimulated, emodin 50 μM, MCP1 20 ng/ml
Protocol: Macrophages were stimulated with IL4 or LPS+IFNγ for 24 h with or without emodin. The media was then removed and the cells were washed with PBS. The cells were then resuspended in DMEM with scraping and 2×10^5 macrophages were seeded in triplicate into the top chamber of transwell inserts with 8 μm pores (Corning) and place in 24 well plates. Serum free DMEM with 20 ng/ml MCP1 was placed in the bottom of the wells. After 4 h, inserts were fixed in 4% paraformaldehyde for 20 min; the cells in upper inserts were swabbed using cotton buds, and the cells left on the membrane were stained with DAPI (1 μg/ml) for 1 min. The inserts were then cut out, mounted onto slides and imaged under a Nikon Eclipse NI-U fluorescence microscope (Nikon Inc. Melville, N.Y.) at 20× magnification (5 fields/insert). DAPI stained cells were quantified using Nikon NIS-Elements software.

[2] = tested on: Peritoneal macrophages from C57Bl/6 mice; test: Macrophages stimulated with EO771 tumor conditioned medium (qPCR, histone kit, ChIP); format: cell-based, mouse
Protocol: 4T1 cells were obtained from the American Type Culture Collection (ATCC), and EO771 cells were developed from an ER+ spontaneous mammary adenocarcinoma. The cells were maintained in culture according to standard practice. For tumor conditioned medium (TCM) collection, cells were grown until they were 80-90% confluent. Following, the medium was replaced with serum free (SF) DMEM and the cells were cultured for 48 h. The medium was then collected and passed through a 0.45 μm filter (Millipore Corp., Bedford, Mass.). The medium was concentrated 10 times using centrifuge filters with a 3,000 MW cutoff (Millipore). Before use the concentrated conditioned medium was diluted 1:2 with fresh SF DMEM.
Mice were injected with 3 mL of 4% thioglycollate solution. After 3 d, macrophages were collected by peritoneal lavage with PBS. The cells were resuspended in DMEM with 10% FBS and cultured for 2 h. The non-adherent cells were then washed away and the remaining cells were cultured overnight in SF DMEM. The cells were then treated with TCM with or without emodin.
For qPCR, cells were lysed with Qiazol, and RNA was extracted using Zymo research Direct-zol RNA isolation kit. cDNA was then made from 1 μg of RNA using iScript cDNA Synthesis Kit (Bio-Rad Life Science, Hercules, Calif.). Run conditions were 95° C. for 10 s, 58° C. for 15 s, 70° C. for 15 s. Samples were run in duplicate on a Bio-rad CFX Real Time thermocycler.
Macrophages were fixed in 1% formaldehyde. Excess formaldehyde was quenched with glycine, and the cells were collected in PBS by scraping. The cells were lysed (0.5% IGEPAL, 4 mM HEPES), and the nuclei were resuspended in nuclear lysis buffer (1% SDS, 10 mM EDTA, and 50 mM Tris, pH 8.1). The DNA was sheared by sonication using a Diagnode Bioruptor Pico (Diagenode, Denville, N.J.) for 25 cycles of 30 s on/30 s off. Then 8 μg chromatin was diluted 1:10 (0.01% SDS, 1.1% Triton X-100, 1.2 mM EDTA, 16.7 mM Tris-HCl, pH 8.1, 167 mM NaCl), and 2% of the input was removed from each sample and saved for analysis. Anti-H3K27m3 (Abcam) was added to each sample along with 20 μL of protein A+G magnetic beads (Millipore), and the samples were incubated overnight at 4° C. The beads were washed with low salt, high salt, LiCl, and TE wash buffers sequentially, and the DNA was eluted off the beads with Proteinase K at 62° C. for 2 h (elution buffer: 200 mM NaCl, 1% SDS and 50 mM Tris). The DNA was then analyzed by qPCR.
In order to detect genome wide levels of histone H3 modifications, histones were isolated from macrophages treated with TCM with or without emodin for 24 h using EpiQuik total histone extraction kits (Epigentek, Farmingdale, N.Y.) according to the manufacturer's instructions. Histones (100 ng) were then analyzed using an EpiQuik Histone H3 modification kits (EpiGentek) according to the manufacturer's instructions.

4T1 cells = test: Proliferation, Ki67 staining; format: cell-based, mouse; conditions: 24 h
Protocol: (§1) For Ki67 staining, 4T1 and EO771 tumor cells were seeded into 6 well plates and cultured in SF DMEM overnight. They were then treated with various concentrations of emodin (0-50 μM) for 24 h. The cells were resuspended with trypsin plus EDTA and fixed with 1% paraformaldehyde. The cells were then permeabilized with 0.25% Triton X-100 and stained with anti-Ki67 […] (Abcam). The cells were washed and incubated with goat anti-rabbit Alexa 488 (Invitrogen, Eugene, Oreg.). After washing, the samples were analyzed by flow cytometry using a BD FACS flow cytometer and CXP software version 2.2. Data were collected for 10,000 live events per sample.

EO771 cells = test: Proliferation, Ki67 staining; format: cell-based, mouse; conditions: 24 h
Protocol: as §1

In the case of `Cc1cc(O)c2c(c1)C(=O)c1cc(O)cc(O)c1C2=O` [emodin], the “macrophage migration toward MCP1” value [1] is reported as “significantly reduced”, the “TCM-decreased H3K27m3 on the promoters of IRF4, Arg1, and C/EBPβ” value ([2]; ChIP assay) is reported as “reversed the reduction” and the “TCM-increased expression of ICAM1” value ([2]; EO771 TCM, 24 h, qPCR) is reported as “dose dependently blocked”. The “TCM-induced expression of Arg1, C/EBPβ and IRF4” value ([2]; EO771 TCM, 24 h, qPCR) was “dose-dependently inhibited”, the “expression of CSFr1” value ([2]; EO771 TCM, 24 h, qPCR) was “decreased the expression” and the “expression of MMP2 and MMP9” value ([2]; EO771 TCM, 24 h, qPCR) was “inhibited expression”. For the same molecule, the “TCM-increased expression of JMJD3” value ([2]; EO771 TCM, emodin 25 μM or 50 μM, 24 h) was “significantly attenuated”, the “global levels of H3K27 methylation” value ([2]; EpiQuik histone modification kit) was “no effects” and the “concentrations with no significant effect on cell proliferation” value (4T1 cells) was “less than 50 μM”. For the same molecule, the “concentrations with no significant effect on cell proliferation” value (EO771 cells) was “less than 50 μM”.
